Here are results for twelve molecules from ChEMBL document CHEMBL1201862, “PubChem BioAssay data set” (2004).

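Cells were grown in 96-well plates and exposed to each compound for 48 hours at five concentrations; endpoints were interpolated linearly between bracketing concentrations, or set to the highest concentration if not reached. GI50: concentration for 50% inhibition of growth.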 Active and inactive are the calls of the source. No stated cut-off is given here; in the data, active = GI50 up to about 1.1 µM and inactive = higher.

Some test systems named below: U-251; SF-268; ACHN; SF-539; TK-10; Malme-3M; UACC-257; SK-OV-3; SW-620; NCI-H23; OVCAR-8; SK-MEL-2; NCI-H460; NCI-H226; HCT-15; HCC 2998; A549; M14; NCI/ADR-RES.
Holding throughout (experiment): NCI-60 cell line screen, 48 h

As for `Nc1nnc(N)n1NC(=O)C(=O)Nc1ccc([N+](=O)[O-])cc1`, the GI50 in the test with U-251, with SF-268, with ACHN, in the test on SF-539, with TK-10 and in the test with Malme-3M was > 100 µM (inactive) throughout. Also, the GI50 with UACC-257, in the test with SK-OV-3, with SW-620, in the test on NCI-H23, in the test with OVCAR-8 and in the test on SK-MEL-2 was > 100 µM (inactive) in each case. Moreover, the GI50 was > 100 µM (inactive) in the test with NCI-H460; > 100 µM (inactive) with NCI-H226; more than 100 µM in the test with HCT-15; > 100 µM (inactive) in the test with HCC 2998; > 100 µM (inactive) in the test on A549.

Regarding `CC1C[C@]2(C[C@@H](C)C(=O)O2)OC2CC3(C)C4CCC5C(C)(C)OC(=O)CC[C@@]56C[C@@]46CC[C@]3(C)C12` (some centres undefined), the GI50 in the test with U-251, in the test on SF-268, with ACHN, in the test with SF-539, in the test on TK-10 and in the test on Malme-3M was > 100 µM (inactive) each time. In addition, the GI50 in the test on UACC-257, with SW-620, with NCI-H23, with M14, with OVCAR-8 and in the test with SK-MEL-2 was > 100 µM (inactive) in each case. In addition, the GI50 with NCI-H460 was > 100 µM (inactive); in the test on NCI-H226, > 100 µM (inactive); in the test on HCT-15, more than 100 µM; in the test on HCC 2998, > 100 µM (inactive); in the test on A549, > 100 µM (inactive).

Regarding `Nc1nn(CC(O)CO)c(=O)s1` (centres undefined), the GI50 with U-251, in the test with SF-268, in the test with ACHN, with SF-539, with TK-10 and in the test with Malme-3M was > 100 µM (inactive) each time. Moreover, the GI50 in the test on UACC-257, with SK-OV-3, in the test on SW-620, in the test with NCI-H23, in the test on M14 and in the test on OVCAR-8 was > 100 µM (inactive) each time. For the same molecule, the GI50 with SK-MEL-2 was > 100 µM (inactive); with NCI-H460, > 100 µM (inactive); in the test with NCI-H226, > 100 µM (inactive); in the test with HCT-15 it was more than 100 µM; in the test on HCC 2998, > 100 µM (inactive); in the test with A549, > 100 µM (inactive).

In the case of `O=P1(N2CCOCC2)OCCO1`, the GI50 in the test on U-251, with SF-268, in the test on ACHN, in the test on Malme-3M, in the test on UACC-257 and with NCI/ADR-RES was > 100 µM (inactive) in each case. The GI50 was > 100 µM (inactive) in the test on SW-620; > 100 µM (inactive) in the test on NCI-H23; > 100 µM (inactive) with M14; > 100 µM (inactive) in the test on NCI-H460; more than 100 µM in the test with HCT-15; > 100 µM (inactive) in the test on HCC 2998. Besides, the GI50 with A549 was > 100 µM (inactive).

Take `COc1cc(C2c3cc4c(cc3[C@@H](Nc3ccc(N5CCOCC5)cc3)C3COC(=O)[C@H]23)OCO4)cc(OC)c1O` (some centres undefined): the GI50 with U-251 is 0.214 µM (active); in the test on SF-268, 1.07 µM (active); in the test with SF-539, 0.571 µM (active); in the test on Malme-3M it was 1.89 µM (inactive); in the test on SK-OV-3, 0.738 µM (active); in the test on NCI/ADR-RES, 3.96 µM (inactive). In addition, the GI50 was 1.5 µM (inactive) with SW-620; 1.32 µM (inactive) in the test with OVCAR-8; 2.46 µM (inactive) in the test on SK-MEL-2; < 0.01 µM (active) with NCI-H460; 0.773 µM (active) in the test on NCI-H226; 0.993 µM with HCT-15. Besides, the GI50 was 1.99 µM (inactive) in the test with HCC 2998 and 0.0659 µM (active) in the test on A549.

Take `NC(=O)C1(c2ccccc2)Nc2ccccc2S1` (centres undefined): the GI50 in the test with U-251, in the test with SF-268, in the test with ACHN, in the test with SF-539, with TK-10 and with Malme-3M was > 100 µM (inactive) each time. Further, the GI50 in the test with SK-OV-3, with SW-620, in the test on NCI-H23, in the test with M14, in the test with OVCAR-8 and in the test with SK-MEL-2 was > 100 µM (inactive) each time. Moreover, the GI50 with NCI-H460 was > 100 µM (inactive); with NCI-H226, > 100 µM (inactive); with HCT-15, more than 100 µM; with HCC 2998, > 100 µM (inactive); in the test with A549 it was > 100 µM (inactive).

In the case of `CCCCOP1(=O)C=CC(Cl)=C(C)C1` (centres undefined), the GI50 with U-251 was > 10 µM (inactive); with SF-268, 28.1 µM (inactive); with ACHN, 19 µM (inactive); in the test with SF-539 it was 18.5 µM (inactive); in the test with TK-10 it was 36.6 µM (inactive); with Malme-3M it was 19.5 µM (inactive). Also, the GI50 was > 10 µM (inactive) with UACC-257; 20.4 µM (inactive) with SW-620; > 10 µM (inactive) with NCI-H23; 33.3 µM (inactive) with M14; 21.6 µM (inactive) in the test on OVCAR-8; 12.4 µM (inactive) with SK-MEL-2. In addition, the GI50 in the test on NCI-H460 is 29.8 µM (inactive); with NCI-H226 it was 21.4 µM (inactive); with HCT-15, 13.1 µM; in the test on HCC 2998 it was > 10 µM (inactive); with A549, > 100 µM (inactive).

As for `CCCNC(/C=C/[Si](C)(C)C)CO.CCCNCC(O)/C=C/[Si](C)(C)C` (centres undefined), the GI50 with U-251, with ACHN, with SF-539, in the test on TK-10, in the test on Malme-3M and in the test with UACC-257 was > 100 µM (inactive) in each case. Also, the GI50 with SK-OV-3, with SW-620, with NCI-H23, with M14, with OVCAR-8 and with SK-MEL-2 was > 100 µM (inactive) each time. Further, the GI50 was > 100 µM (inactive) with NCI-H460, more than 100 µM with HCT-15, > 100 µM (inactive) with HCC 2998 and > 100 µM (inactive) in the test on A549.

As to `O=C1C2Cc3ccccc3CN2C(=O)N1CN1CCCCC1` (centres undefined), the GI50 in the test with U-251, with SF-268, with ACHN, in the test on SF-539, with TK-10 and in the test with Malme-3M was > 100 µM (inactive) each time. The GI50 is 55.6 µM (inactive) in the test with SW-620; > 100 µM (inactive) in the test with NCI-H23; > 100 µM (inactive) in the test with M14; > 100 µM (inactive) in the test on OVCAR-8; > 100 µM (inactive) in the test with SK-MEL-2; > 100 µM (inactive) with NCI-H460. In addition, the GI50 in the test on NCI-H226 is > 100 µM (inactive); in the test on HCT-15, 43.6 µM; in the test on HCC 2998, > 100 µM (inactive); with A549, > 100 µM (inactive).

Regarding `COc1ccc(Sc2ccccc2N)cc1`, the GI50 in the test with U-251 is 19 µM (inactive); in the test with SF-268, 43.1 µM (inactive); with ACHN, 56.8 µM (inactive); with SF-539, 29.6 µM (inactive); in the test on TK-10 it was > 100 µM (inactive); in the test with Malme-3M, 57.8 µM (inactive). In addition, the GI50 in the test with UACC-257 was 38.5 µM (inactive); in the test on SK-OV-3, > 100 µM (inactive); with SW-620 it was 57.1 µM (inactive); in the test on NCI-H23, 43.6 µM (inactive); in the test with M14, 35.8 µM (inactive); in the test with OVCAR-8, 60.5 µM (inactive). For the same molecule, the GI50 in the test on SK-MEL-2 was > 100 µM (inactive); in the test with NCI-H460 it was 52.5 µM (inactive); with NCI-H226 it was 22.7 µM (inactive); in the test with HCT-15, 37 µM; in the test on HCC 2998, 41 µM (inactive); in the test on A549, 55 µM (inactive).

Take `COc1ccc(C2C(C(=O)O)=C(COC(C)=O)Oc3cc4c(cc32)OCO4)cc1` (centres undefined): the GI50 in the test with U-251, in the test with ACHN, in the test on TK-10, in the test on Malme-3M, with UACC-257 and with SK-OV-3 was > 100 µM (inactive) throughout. Further, the GI50 with SW-620 was > 100 µM (inactive); in the test with NCI-H23, > 100 µM (inactive); in the test with M14 it was > 100 µM (inactive); with OVCAR-8 it was > 100 µM (inactive); with NCI-H460, > 100 µM (inactive); with HCT-15, more than 100 µM. Also, the GI50 in the test on A549 was > 100 µM (inactive).

As for `COC(=O)C1=COC2OC3/C(=C\c4ccc(O)c(OC)c4)C(=O)OC34C=CC1C24` (centres undefined), the GI50 was 15.2 µM (inactive) in the test with U-251; 19.5 µM (inactive) in the test on SF-268; 15.1 µM (inactive) in the test with ACHN; 17.4 µM (inactive) in the test on SF-539; 17.3 µM (inactive) in the test on TK-10; 16.5 µM (inactive) with Malme-3M. Besides, the GI50 in the test with UACC-257 is 15.9 µM (inactive); in the test with SK-OV-3, 17 µM (inactive); in the test with SW-620, 20 µM (inactive); in the test with NCI-H23 it was 17.7 µM (inactive); in the test with M14 it was 3.37 µM (inactive); in the test with OVCAR-8, 18.9 µM (inactive). The GI50 was 11.3 µM (inactive) in the test with SK-MEL-2; 17.9 µM (inactive) with NCI-H460; 14.4 µM (inactive) with NCI-H226; 14.6 µM in the test with HCT-15; 10.8 µM (inactive) in the test on HCC 2998; 17.1 µM (inactive) in the test on A549.
